This passage reports IC50 results from patent US9493461B2, “Tetracyclic heterocycle compounds and methods of use thereof for the treatment of hepatitis C” (priority 2013, dated 2016).

The test system of one experiment is HCV replicon genotype 1a. In words: HCV replicon assay, genotype 1a (cell ELISA for replicon-encoded NS3/4A). Format: cell-based, hepatitis C virus (HCV). On the procedure: Measurement of inhibition by compounds was performed using the HCV replicon system. Several different replicons encoding different HCV genotypes or mutations were used. In addition, potency measurements were made using different formats of the replicon assay, including different ways of measurements and different plating formats. See Jan M. Vrolijk et al., A replicons-based bioassay for the measurement of interferons in patients with chronic hepatitis C, 110 J. V[…] 201 (2003); Steven S. Carroll et al., Inhibition of Hepatitis C Virus RNA Replication by 2′-Modified Nucleoside Analogs, 278(14) J. BIOLOGICAL CHEMISTRY 11979 (2003). However, the underlying principles are common to all of these determinations, and are outlined below.
(§1) Stable neomycin phosphotransferase encoding replicons-harboring cell lines were used, so all cell lines were maintained under G418 selection prior to the assay. Potency was determined using a cell ELISA assay with an antibody to the replicons encoded NS3/4a protease. See Caterina Trozzi et al., In Vitro Selection and Characterization of Hepatitis C Virus Serine Protease Variants Resistant to an Active-Site Peptide Inhibitor, 77(6) J. Virol. 3669 (2003). To initiate an assay, replicon cells were plated in the presence of a dilution series of test compound in the absence of G418. Typically, the assays were performed in a 96-well plate formate for manual operation, or a 384-well plate format for automated assay. Replicon cells and compound were incubated for 96 hours. At the end of the assay, cells were washed free of media and compound, and the cells were then lysed. RNA was quantified indirectly through detection of replicon-encoded NS3/4A protein levels, through an ELISA-based assay with an antibody specific for NS3/4A. IC50 determinations were calculated as a percentage of a DMSO control by fitting the data to a four-parameter fit function and the data obtained is provided in the table below.
(§2) Data for selected compounds of the present invention was obtained for genotypes 1a and 1b using this method and is provided in the table below: […]

The next experiment has as its system HCV replicon genotype 1b. In words: HCV replicon assay, genotype 1b (cell ELISA for replicon-encoded NS3/4A). Format: cell-based, hepatitis C virus (HCV). On the procedure: The HCV NS5B inhibitory activity of the present compounds may be tested using assays known in the art. The HCV NS5B polymerase inhibitors described herein have activities in a genotype 1b replicon assay as described in the Examples. The assay is performed by incubating a replicon harboring cell-line in the presence of inhibitor for a set period of time and measuring the effect of the inhibitor on HCV replicon replication either directly by quantifying replicon RNA level, or indirectly by measuring enzymatic activity of a co-encoded reporter enzyme such as luciferase or β-lactamase. By performing a series of such measurements at different inhibitor concentrations, the effective inhibitory concentration of the inhibitor (EC50 or EC90) is determined See Jan M. Vrolijk et al., A replicons-based bioassay for the measurement of interferons in patients with chronic hepatitis C, 110 J. VIROLOGICAL METHODS 201 (2003). Such assays may also be run in an automated format for high through-put screening. See Paul Zuck et al., A cell-based β-lactamase reporter gene assay for the identification of inhibitors of hepatitis C virus replication, 334 ANALYTICAL BIOCHEMISTRY 344 (2004).
Measurement of inhibition by compounds was performed using the HCV replicon system. Several different replicons encoding different HCV genotypes or mutations were used. In addition, potency measurements were made using different formats of the replicon assay, including different ways of measurements and different plating formats. See Jan M. Vrolijk et al., A replicons-based bioassay for the measurement of interferons in patients with chronic hepatitis C, 110 J. VIROLOGICAL METHODS 201 (2003); Steven S. Carroll et al., Inhibition of Hepatitis C Virus RNA Replication by 2′-Modified Nucleoside Analogs, 278(14) J. BIOLOGICAL CHEMISTRY 11979 (2003). However, the underlying principles are common to all of these determinations, and are outlined below.
as §1, §2

The mark [1] stands for this setting: Hepatitis C virus, 96 h, read-out: 1a IC50 (nM), genotype 1a replicon cells, 96 hours incubation, NS3/4A ELISA readout, % of DMSO control.
Where [2] appears, read: Hepatitis C virus, 96 h, read-out: 1b IC50 (nM), genotype 1b replicon cells, 96 hours incubation, NS3/4A ELISA readout, % of DMSO control.

Like-named read-outs stand apart in the source and are kept apart here.

On to `CCc1ncc(-c2oc3cc(N(C)S(C)(=O)=O)c(-c4ccc5ncn6c7cccc(F)c7cc6c5n4)cc3c2C(=O)NC)s1` [Example 53, 2-(2-ethylthiazol-5-yl)-5-(11-fluoropyrido[3′,2′:4,5]pyrimido[1,6-a]indol-2-yl)-N-methyl-6-(N-methylmethylsulfonamido)benzofuran-3-carboxamide], for which the IC50 with HCV replicon genotype 1a (setting [1]) worked out at 7.79 nM; with HCV replicon genotype 1b (setting [2]), 6.37 nM.

Turning to `CNC(=O)c1c(-c2ccc(F)nc2)oc2cc(N(C)S(C)(=O)=O)c(-c3ccc4ncn5c6cccc(F)c6cc5c4n3)cc12` [Example 7], the IC50 turned out to be 1.49 nM in the experiment on HCV replicon genotype 1a (setting [1]) and 3.6 nM with HCV replicon genotype 1b (setting [2]).

On to `CNC(=O)c1c(-c2ccc(F)cc2)oc2cc(N(C)S(C)(=O)=O)c(-c3ccc4c(n3)-c3cc5c(F)cccc5n3C(CCO)N4)cc12` (stereo not shown) [Example 65, 5-(11-fluoro-6-(2-hydroxyethyl)-5,6-dihydropyrido[3′,2′:4,5]pyrimido[1,6-a]indol-2-yl)-2-(4-fluorophenyl)-N-methyl-6-(N-methylmethylsulfonamido)benzofuran-3-carboxamide], for which the IC50 with HCV replicon genotype 1a (setting [1]) was found to be 2.52 nM; with HCV replicon genotype 1b (setting [2]), 2.42 nM.

Turning to `CNC(=O)c1c(-c2ccc(F)cc2)oc2cc(N(C)S(C)(=O)=O)c(-c3ccc4nc(CN5CCOCC5)n5c6cccc(F)c6cc5c4n3)cc12` [Example 90], the IC50 in the experiment with HCV replicon genotype 1a (setting [1]) was found to be 3.62 nM; in the experiment with HCV replicon genotype 1b (setting [2]) it was 3.66 nM.

For the compound `CNC(=O)c1c(-c2ccc(F)cc2)oc2cc(N(C)S(C)(=O)=O)c(-c3ccc4ncn5c6ccccc6cc5c4c3)cc12` [Example 41, 2-(4-fluorophenyl)-5-(indolo[1,2-c]quinazolin-2-yl)-N-methyl-6-(N-methylmethylsulfonamido)benzofuran-3-carboxamide], the IC50 in the experiment on HCV replicon genotype 1a (setting [1]) was 2.09 nM; in the experiment with HCV replicon genotype 1b (setting [2]), 2.57 nM.

As to `CNC(=O)c1c(-c2ccc(F)cc2)oc2cc(N(C)S(C)(=O)=O)c(-c3ccc4nc(CN5CCC5(C)C)n5c6cccc(F)c6cc5c4n3)cc12` [Example 99], the IC50 with HCV replicon genotype 1a (setting [1]) worked out at 3.32 nM; in the experiment with HCV replicon genotype 1b (setting [2]) it was 5.76 nM.

For `CNC(=O)c1c(-c2ccc(F)cc2)oc2cc(N(C)S(C)(=O)=O)c(-c3ccc4nc(CN5CCN(C(C)=O)CC5)n5c6cccc(F)c6cc5c4n3)cc12` [Example 105], the results for the IC50 in the experiment on HCV replicon genotype 1a (setting [1]) and with HCV replicon genotype 1b (setting [2]) were 2.6 nM and 3.79 nM, respectively.

Turning to `CNC(=O)c1c(-c2ccc(F)cc2F)oc2cc(N(C)S(C)(=O)=O)c(-c3ccc4nc(CN5CC6CC5CO6)n5c6cccc(F)c6cc5c4n3)cc12` (stereo not shown) [Example 146], the IC50 with HCV replicon genotype 1a (setting [1]) and in the experiment on HCV replicon genotype 1b (setting [2]) was 3.38 nM throughout.

Turning to `CNC(=O)c1c(-c2ccc(F)cc2F)oc2cc(N(C)S(C)(=O)=O)c(-c3ccc4nc(CN5CCC[C@H]5C(F)(F)F)n5c6cccc(F)c6cc5c4n3)cc12` [Example 145], the IC50 with HCV replicon genotype 1a (setting [1]) came out at 20 nM; with HCV replicon genotype 1b (setting [2]), 12.2 nM.

With `CNC(=O)c1c(-c2ccc(C(F)(F)F)nc2)oc2cc(N(C)S(C)(=O)=O)c(-c3cc4c(cn3)ncn3c5cccc(F)c5cc43)cc12` [Example 17, 5-(11-fluoropyrido[3′,4′:4,5]pyrimido[1,6-a]indol-2-yl)-N-methyl-6-(N-methylmethylsulfonamido)-2-(6-(trifluoromethyl)pyridin-3-yl)benzofuran-3-carboxamide], the figures for the IC50 in the experiment on HCV replicon genotype 1a (setting [1]) and with HCV replicon genotype 1b (setting [2]) were 1.27 nM and 1.78 nM, respectively.

With `CNC(=O)c1c(-c2ccc(F)cc2)oc2cc(N(C)S(C)(=O)=O)c(-c3ccc4nc(CN5CC[C@@H](F)C5)n5c6cccc(C#N)c6cc5c4n3)cc12` [Example 135], the IC50 in the experiment with HCV replicon genotype 1a (read-out: 1a IC50, genotype 1a replicon cells, 96 hours incubation, NS3/4A ELISA readout, % of DMSO control) was determined as 2.71 nM; with HCV replicon genotype 1b (read-out: 1b IC50, genotype 1b replicon cells, 96 hours incubation, NS3/4A ELISA readout, % of DMSO control), 3.66 nM.

For `CNC(=O)c1c(-c2ccc(F)cc2)oc2cc(N(C)S(C)(=O)=O)c(-c3ccc4nc(CC(=O)OC)n5c6cccc(F)c6cc5c4n3)cc12` [Example 63, methyl 2-(11-fluoro-2-(2-(4-fluorophenyl)-3-(methylcarbamoyl)-6-(N-methylmethylsulfonamido)benzofuran-5-yl)pyrido[3′,2′:4,5]pyrimido[1,6-a]indol-6-yl)acetate], the results for the IC50 with HCV replicon genotype 1a (setting [1]) and with HCV replicon genotype 1b (setting [2]) were 1.55 nM and 2.76 nM, respectively.

Regarding `CNC(=O)c1c(-c2ccc(F)cc2F)oc2cc(N(C)S(C)(=O)=O)c(-c3ccc4nc(CN5CC[C@@H](F)C5)n5c6cccc(F)c6cc5c4n3)cc12` [Example 44, (R)-2-(2,4-difluorophenyl)-5-(11-fluoro-6-((3-fluoropyrrolidin-1-yl)methyl)pyrido[3′,2′:4,5]pyrimido[1,6-a]indol-2-yl)-N-methyl-6-(N-methylmethylsulfonamido)benzofuran-3-carboxamide], the results for the IC50 in the experiment with HCV replicon genotype 1a (setting [1]) and in the experiment with HCV replicon genotype 1b (setting [2]) were 3.22 nM and 3.45 nM, respectively.

As to `CNC(=O)c1c(-c2ccc(F)cc2)oc2cc(N(C)S(C)(=O)=O)c(-c3ccc4nc(CN5CC[C@@H](F)C5)n5c6cccc(C#N)c6cc5c4n3)cc12` [Example 121], the values for the IC50 with HCV replicon genotype 1a (setting [1]) and with HCV replicon genotype 1b (setting [2]) were 2.95 nM and 3.25 nM, respectively.

For the compound `CNC(=O)c1c(-c2ccc(F)cc2F)oc2cc(N(C)S(C)(=O)=O)c(-c3ccc4nc(CN5CCN(C(C)=O)CC5)n5c6cccc(F)c6cc5c4n3)cc12` [Example 148], the values for the IC50 in the experiment on HCV replicon genotype 1a (setting [1]) and with HCV replicon genotype 1b (setting [2]) were 2.52 nM and 3.17 nM, respectively.

Take `CNC(=O)c1c(-c2ccc(F)cc2)oc2cc(N(C)S(C)(=O)=O)c(-c3cc4c(cn3)nc(CN3CCOCC3)n3c5cccc(F)c5cc43)cc12` [Example 112]: the IC50 with HCV replicon genotype 1a (setting [1]) was determined as 2.02 nM; in the experiment on HCV replicon genotype 1b (setting [2]) it was 3.45 nM.

With `CNC(=O)c1c(-c2ccc(F)cc2)oc2cc(N(C)S(C)(=O)=O)c(-c3ccc4nc(CN5CC6CC6C5)n5c6cccc(F)c6cc5c4n3)cc12` (stereo not shown) [Example 102], the IC50 with HCV replicon genotype 1a (setting [1]) was determined as 7.03 nM; in the experiment on HCV replicon genotype 1b (setting [2]), 11.8 nM.

Regarding `CNC(=O)c1c(-c2ccc(F)cc2)oc2cc(N(C)S(C)(=O)=O)c(-c3ccc4nc(CN5CCC(F)(F)C5)n5c6cccc(F)c6cc5c4n3)cc12` [Example 82], the IC50 came to 2.74 nM with HCV replicon genotype 1a (setting [1]) and 2.45 nM with HCV replicon genotype 1b (setting [2]).

In the case of `CNC(=O)c1c(-c2ccc(F)cc2)oc2cc(N(C)S(C)(=O)=O)c(-c3ccc4nc(N)n5c6cccc(F)c6cc5c4n3)cc12` [Example 25, 5-(6-amino-11-fluoropyrido[3′,2′:4,5]pyrimido[1,6-a]indol-2-yl)-2-(4-fluorophenyl)-N-methyl-6-(N-methylmethylsulfonamido)benzofuran-3-carboxamide], the IC50 is 245 nM in the experiment on HCV replicon genotype 1a (setting [1]) and 145 nM in the experiment with HCV replicon genotype 1b (setting [2]).

On to `CNC(=O)c1c(-c2ccc(F)cc2)oc2cc(N(C)S(C)(=O)=O)c(-c3ccc4nc(CN5CC(O)(C(F)(F)F)C5)n5c6cccc(C#N)c6cc5c4n3)cc12` [Example 131], for which the results for the IC50 in the experiment with HCV replicon genotype 1a (setting [1]) and with HCV replicon genotype 1b (setting [2]) were 4.09 nM and 4.23 nM, respectively.

In the case of `CNC(=O)c1c(-c2ccc(F)cc2)oc2cc(N(C)S(C)(=O)=O)c(-c3ccc4nc(CN5CC(C)(F)C5)n5c6cccc(F)c6cc5c4n3)cc12` [Example 81], the IC50 was 3.24 nM with HCV replicon genotype 1a (setting [1]) and 3.28 nM in the experiment on HCV replicon genotype 1b (setting [2]).

On to `CNC(=O)c1c(-c2ccc(F)nc2)oc2cc(N(C)S(C)(=O)=O)c(-c3ccc4nc(CN5CC(F)C5)n5c6cccc(F)c6cc5c4n3)cc12` [Example 31], for which the IC50 amounted to 2.95 nM in the experiment on HCV replicon genotype 1a (setting [1]) and 4.69 nM in the experiment on HCV replicon genotype 1b (setting [2]).

On to `CNC(=O)c1c(-n2ccc(C)cc2=O)oc2cc(N(C)S(C)(=O)=O)c(-c3ccc4ncn5c6cccc(F)c6cc5c4n3)cc12` [Example 12], for which the IC50 in the experiment on HCV replicon genotype 1a (setting [1]) amounted to 2.11 nM; with HCV replicon genotype 1b (setting [2]) it was 2.36 nM.
